Our source for the inhibition values is patent US9850272B2, “Therapeutically active estratrienthiazole derivatives as inhibitors of 17.beta-hydroxy-steroid dehydrogenase, type 1” (FORENDO PHARMA LTD, priority 2013, dated 2017).

For orientation: inhibition means the drop in the measured response relative to a control, in per cent.

Assay [1] deals with T1, Recombinant Human 17β-HSD2 (Homo sapiens, UniProt P37059).
T1 construct: made in house; host or cells: Sd9 (Sf9) insect cells, baculovirus (Bac to Bac Expression System)
T1 sequence (P37059 1-387): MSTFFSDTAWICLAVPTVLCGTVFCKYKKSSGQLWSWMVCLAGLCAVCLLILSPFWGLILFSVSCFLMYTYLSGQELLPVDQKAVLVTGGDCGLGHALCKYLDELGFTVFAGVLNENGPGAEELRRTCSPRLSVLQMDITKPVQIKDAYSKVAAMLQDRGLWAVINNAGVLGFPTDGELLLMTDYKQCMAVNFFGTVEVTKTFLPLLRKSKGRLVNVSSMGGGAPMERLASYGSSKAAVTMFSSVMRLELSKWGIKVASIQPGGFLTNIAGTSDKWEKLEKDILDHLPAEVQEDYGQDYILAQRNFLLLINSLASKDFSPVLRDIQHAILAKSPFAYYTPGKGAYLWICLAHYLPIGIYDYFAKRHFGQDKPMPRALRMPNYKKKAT
Description: Inhibition of recombinant human 17β-HSD2 (conversion of 3H-estradiol to estrone, HPLC). The note with it: inhibitor at 1 μM; 50 nM estradiol, 1 mM NADH, 30 min at RT; read-out: 17β-HSD2 Inhibition % at 1 μM. It is filed as biochemical. The procedure:
17β-HSD2 Production and Isolation:
Similarly to 17β-HSD1 the Recombinant baculovirus was generated by the “Bac to Bac Expression System” (Invitrogen). Recombinant bacmid was transfected to Sd9 insect cells using “Cellfectin Reagent” (Invitrogen). 60 h later cells were harvested and supernatant were fractionated by the following protocol: • cells were dissolved into 40 ml of A-buffer (40 mM TRIS, pH8.0, 20% glycerol, 20 μM NAD, 0.4 mM PMSF, 150 mM NaCl, 0.5% dodecyl-β-maltoside+protease inhibitor cocktail) • cells were sonicated • lysate was incubated on ice for 15 min • lysate was centrifuged 5000 rpm 15 min, +4° C. • centrifugation of the supernatant 180.000 g 30 min, +4° C. • pellet was dissolved into 8 ml of A-buffer • not resuspended material was removed by centrifugation 5000 rpm 15 min, +4° C. • the clear supernatant was divided into 100 μl aliquots and were stored frozen until determination of enzymatic activity.
The amount of 17β-HSD2 was analysed by immunoblotting and total protein concentration of each extract batch was determined.
Assay—Inhibition of Recombinant Human 17β-HSD2:
Recombinant protein (4 μg/ml) was incubated in 20 mM KH2PO4 pH 8.5 with 50 nM estradiol (including 800.000 cpm/ml of ^3H-estradiol) and 1 mM NADH for 30 min at RT, in the presence of the potential inhibitor at concentrations 1 μM or 0.1 μM. Inhibitor stock solutions were prepared in DMSO. Final concentration of DMSO was adjusted to 1% in all samples. The enzyme reaction was stopped by addition of 10% trichloroacetic acid (final concentration). Samples were centrifuged in a microtiter plate at 4000 rpm for 10 min. Supernatants were applied to reverse phase HPLC on a Waters Symmetry C18 column, equipped with a Waters Sentry Guard column. Isocratic HPLC runs were performed at RT at a flow rate of 1 ml/min in acetonitrile:water 48:52 as running solvent. Radioactivity was monitored in the eluate by a Packard Flow Scintillation Analyzer. Total radioactivity for estrone and estradiol were determined in each sample and percent conversion of estradiol to estrone was calculated according to the following formula:
(§1) Percent inhibition was calculated flowingly: % inhibition=100−% conversion

Assay [2] deals with T2, Recombinant Human 17β-HSD1 (Homo sapiens, UniProt P14061).
T2 construct: made in house; host or cells: Sd9 (Sf9) insect cells, baculovirus (Bac to Bac Expression System)
T2 sequence (P14061 1-328): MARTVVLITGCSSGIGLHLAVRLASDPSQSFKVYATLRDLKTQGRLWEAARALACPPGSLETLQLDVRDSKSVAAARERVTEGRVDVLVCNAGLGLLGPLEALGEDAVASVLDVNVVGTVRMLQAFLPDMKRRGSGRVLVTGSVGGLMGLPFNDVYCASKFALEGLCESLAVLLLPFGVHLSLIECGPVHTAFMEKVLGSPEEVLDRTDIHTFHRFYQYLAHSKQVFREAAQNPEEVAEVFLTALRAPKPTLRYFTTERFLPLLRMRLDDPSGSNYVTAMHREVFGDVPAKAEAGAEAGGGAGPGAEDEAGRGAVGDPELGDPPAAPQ
Description: Inhibition of recombinant human 17β-HSD1 (conversion of 3H-estrone to estradiol, HPLC). The settings on record: inhibitor at 1 μM; 30 nM estrone, 1 mM NADPH, 30 min at RT; read-out: 17β-HDS1 Inhibition % at 1 μM. It is filed as biochemical. Here is the method: 17β-HSD1 Production and Isolation:
Recombinant baculovirus was generated by the “Bac to Bac Expression System” (Invitrogen). Recombinant bacmid was transfected to Sd9 insect cells using “Cellfectin Reagent” (Invitrogen). 60 h later cells were harvested; the microsomal fraction was isolated as described by Puranen, T. J., Poutanen, M. H., Peltoketo, H. E., Vihko, P. T. and Vihko, R. K. (1994) Site-directed mutagenesis of the putative active site of human 17 β-hydroxysteroid dehydrogenase type 1. Biochem. J. 304: 289-293. Aliquots were stored frozen until determination of enzymatic activity.
Assay—Inhibition of Recombinant Human 17β-HSD1:
Recombinant protein (1 μg/ml) was incubated in 20 mM KH2PO4 pH 7.4 with 30 nM estrone (including 800.000 cpm/ml of ^3H-estrone) and 1 mM NADPH for 30 min at RT, in the presence of the potential inhibitor at concentrations 1 μM or 0.1 μM. Inhibitor stock solutions were prepared in DMSO. Final concentration of DMSO was adjusted to 1% in all samples. The enzyme reaction was stopped by addition of 10% trichloroacetic acid (final concentration). Samples were centrifuged in a microtiter plate at 4000 rpm for 10 min. Supernatants were applied to reverse phase HPLC on a Waters Symmetry C18 column, equipped with a Waters Sentry Guard column. Isocratic HPLC runs were performed at RT at a flow rate of 1 ml/min in acetonitrile:water 48:52 as running solvent. Radioactivity was monitored in the eluate by a Packard Flow Scintillation Analyzer. Total radioactivity for estrone and estradiol were determined in each sample and percent conversion of estrone to estradiol was calculated according to the following formula:
as §1

As for `Cc1cnc(NC(=O)CC[C@@H]2C[C@@](O)(CC#N)[C@@]3(C)CCC4c5ccc(O)cc5CCC4C23)s1` (stereo partly drawn) [Compound 24, 3-((13S,15R,17R)-17-(cyanomethyl)-3,17-dihydroxy-13-methyl-7,8,9,11,12,13,14,15,16,17-decahydro-6H-cyclopenta[a]phenanthren-15-yl)-N-(5-methylthiazol-2-yl)propanamide], the values for the inhibition at 1 µM in assay [1] and in assay [2] were 4% and 51%, respectively.
On the same counts, the results for `Cc1cnc(NC(=O)CC[C@@H]2C[C@H](O)[C@@]3(C)CCC4c5ccc(O)c(NC(C)CO)c5CCC4C23)s1` (stereo partly drawn) [Compound 72, 3-[(13S,15R,17S)-3,17-Dihydroxy-4-(2-hydroxy-1-methyl-ethylamino)-13-methyl-7,8,9,11,12,13,14,15,16,17-decahydro-6H-cyclopenta[a]phenanthren-15-yl]-N-(5-methylthiazol-2-yl)propionamide] are 0% and 50%.
On the same counts, the results for `Cc1cnc(NC(=O)CC[C@@H]2C[C@H](NCC(C)C)[C@@]3(C)CCC4c5ccc(O)cc5CCC4C23)s1` (stereo partly drawn) [Compound 74, 3-((13S,15R)-3-Hydroxy-17-isobutylamino-13-methyl-7,8,9,11,12,13,14,15,16,17-decahydro-6H-cyclopenta[a]phenanthren-15-yl]-N-(5-methylthiazol-2-yl)propionamide] are 2% and 80%.
As for `COCCNC1C[C@@H](CCC(=O)Nc2ncc(C)s2)C2C3CCc4cc(O)ccc4C3CC[C@]12C` (stereo partly drawn) [Compound 77, 3-((13S,15R)-3-Hydroxy-17-(2-methoxyethylamino)-13-methyl-7,8,9,11,12,13,14,15,16,17-decahydro-6H-cyclopenta[a]phenanthren-15-yl]-N-(5-methylthiazol-2-yl)propionamide], the inhibition at 1 µM is 1% in assay [1] and 84% in assay [2].
The corresponding values for `Cc1cnc(NC(=O)CC[C@@H]2CC(NCCN(C)C)[C@@]3(C)CCC4c5ccc(O)cc5CCC4C23)s1` (stereo partly drawn) [Compound 81, 3-[(13S,15R)-17-(2-Dimethylamino-ethylamino)-3-hydroxy-13-methyl-7,8,9,11,12,13,14,15,16,17-decahydro-6H-cyclopenta[a]phenanthren-15-yl]-N-(5-methylthiazol-2-yl)propionamide] are 2% and 71%.
On the same counts, the results for `CO[C@H]1C[C@@H](CCC(=O)Nc2ncc(C)s2)C2C3CCc4c(cc(Br)c(O)c4Br)C3CC[C@@]21C` (stereo partly drawn) [Compound 29, 3-((13S,15R,17S)-2,4-dibromo-3-hydroxy-17-methoxy-13-methyl-7,8,9,11,12,13,14,15,16,17-decahydro-6H-cyclopenta[a]phenanthren-15-yl)-N-(5-methylthiazol-2-yl)propanamide] are 3% and 67%.
Turning to `CC(=O)Oc1ccc2c(c1)CCC1C2CC[C@@]2(C)C1[C@H](CCC(=O)Nc1ncc(C)s1)C[C@@]2(O)C#N` (stereo partly drawn) [Compound 22, (13S,15R,17S)-17-cyano-17-hydroxy-13-methyl-15-(3-((5-methylthiazol-2-yl)amino)-3-oxopropyl)-7,8,9,11,12,13,14,15,16,17-decahydro-6H-cyclopenta[a]phenanthren-3-yl acetate], the inhibition at 1 µM in assay [1] was determined as 1%; in assay [2] it was 71%.
On the same counts, the results for `Cc1cnc(NC(=O)CC[C@@H]2CC(NCCO)[C@@]3(C)CCC4c5ccc(O)cc5CCC4C23)s1` (stereo partly drawn) [Compound 78, 3-((13S,15R)-3-Hydroxy-17-(2-hydroxyethylamino)-13-methyl-7,8,9,11,12,13,14,15,16,17-decahydro-6H-cyclopenta[a]phenanthren-15-yl]-N-(5-methylthiazol-2-yl)propionamide] are 2% and 88%.
